Target: Tyrosine-protein kinase BTK (Homo sapiens, UniProt Q06187)
Experiment: Biochemical Btk Assay: A generalized procedure for a standard biochemical Btk Kinase Assay that can be used to test Formula I compounds is as follows. A master mix minus Btk enzyme is prepared containing 1x Cell Signaling kinase buffer (25 mM Tris-HCl, pH 7.5, 5 mM beta-glycerophosphate, 2 mM dithiothreitol, 0.1 mM Na3VO4, 10 mM MgCl2), 0.5 μM Promega PTK Biotinylated peptide substrate 2, and 0.01% BSA. A master mix plus Btk enzyme is prepared containing 1x Cell Signaling kinase buffer, 0.5 μM PTK Biotinylated peptide substrate 2, 0.01% BSA, and 100 ng/well (0.06 mU/well) Btk enzyme. Btk enzyme is prepared as follows: full length human wildtype Btk (accession number NM-000061) with a C-terminal V5 and 6xHis tag was subcloned into pFastBac vector for making baculovirus carrying this epitope-tagged Btk.

Tyrosine-protein kinase BTK, sequence (Q06187 whole entry): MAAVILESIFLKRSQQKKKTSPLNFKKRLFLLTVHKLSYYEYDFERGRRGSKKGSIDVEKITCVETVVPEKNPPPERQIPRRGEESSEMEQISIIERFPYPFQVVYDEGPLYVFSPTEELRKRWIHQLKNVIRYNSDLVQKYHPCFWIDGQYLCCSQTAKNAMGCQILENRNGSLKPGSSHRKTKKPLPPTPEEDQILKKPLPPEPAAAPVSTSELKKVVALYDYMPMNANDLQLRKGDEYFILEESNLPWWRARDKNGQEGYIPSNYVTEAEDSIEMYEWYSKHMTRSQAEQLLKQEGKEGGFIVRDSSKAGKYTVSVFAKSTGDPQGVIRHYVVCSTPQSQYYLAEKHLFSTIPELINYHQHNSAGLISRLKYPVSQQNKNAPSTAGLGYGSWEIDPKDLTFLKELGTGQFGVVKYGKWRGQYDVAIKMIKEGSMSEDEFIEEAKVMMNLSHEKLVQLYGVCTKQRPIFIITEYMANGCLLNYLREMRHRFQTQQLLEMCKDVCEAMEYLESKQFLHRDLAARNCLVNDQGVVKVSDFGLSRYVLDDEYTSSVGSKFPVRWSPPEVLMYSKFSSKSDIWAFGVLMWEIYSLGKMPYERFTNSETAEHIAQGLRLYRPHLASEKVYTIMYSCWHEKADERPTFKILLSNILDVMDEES

SMILES: Cc1c(-c2cn(C)c(=O)c(Nc3ccc(C4C(=O)N(C)CCN4C)cc3)n2)cccc1N1Cc2cc(C(C)(C)C)ccc2C1=O (stereo not drawn)
- IC50: 29.4 nM

SMILES: Cc1c(-c2cn(C)c(=O)c(Nc3ccc(C4C(=O)N(C)CCN4C)cc3)n2)cccc1N1Cc2cc(N3CCCCC3)ccc2C1=O (stereo not drawn)
- IC50: 245 nM

SMILES: Cc1c(-c2cn(C)c(=O)c(Nc3ccc(C(=O)N4CCOCC4)cc3)n2)cccc1N1Cc2cc(C(C)(C)C)ccc2C1=O
- IC50: 36.4 nM

From ChEMBL document CHEMBL3886504, “Pyridinones/pyrazinones, method of making, and method of use thereof” (2016)
